{
  "source": "paper PMC5218480",
  "about": "(PLoS ONE, 2017)",
  "test_system": "MV-4-11 cells",
  "test": "Gene expression microarray analysis (Affymetrix PrimeView) and GSEA",
  "type": "cell-based, human",
  "set-up": "RFU PODN (11730768_x_at) / Fold change /veh PODN (11730768_x_at) / RFU LINC00158 (11744669_a_at) / Fold change /veh LINC00158 (11744669_a_at) / RFU DUSP10 (11751237_a_at) / Fold change /veh DUSP10 (11751237_a_at) / RFU ID3 (11757404_x_at) / Fold change /veh ID3 (11757404_x_at) / RFU PLEKHG5 (11737974_s_at) / Fold change /veh PLEKHG5 (11737974_s_at) / RFU LRRC4B (11730491_at) / Fold change /veh LRRC4B (11730491_at) / RFU GIMAP4 (11747438_a_at) / Fold change /veh GIMAP4 (11747438_a_at) / RFU KRT8 (11758183_x_at) / Fold change /veh KRT8 (11758183_x_at) / RFU CNN1 (11734310_a_at) / Fold change /veh CNN1 (11734310_a_at) / RFU VPS37D (11726825_at) / Fold change /veh VPS37D (11726825_at) / RFU C10orf10 (11716522_x_at) / Fold change /veh C10orf10 (11716522_x_at) / RFU KIR2DL2 /// KIR2DL4 /// KIR2DL5A /// KIR2DL5B /// KIR2DS1 /// KIR2DS2 /// KIR2DS3 /// KIR2DS4 /// KIR3DL3 /// KIR3DL3 /// KIR3DS1 (11738374_at) / Fold change /veh KIR2DL2 /// KIR2DL4 /// KIR2DL5A /// KIR2DL5B /// KIR2DS1 /// KIR2DS2 /// KIR2DS3 /// KIR2DS4 /// KIR3DL3 /// KIR3DL3 /// KIR3DS1 (11738374_at) / RFU C1QL1 (11718748_at) / Fold change /veh C1QL1 (11718748_at) / RFU TMPRSS4 (11747572_a_at) / Fold change /veh TMPRSS4 (11747572_a_at) / RFU HAMP (11756126_x_at) / Fold change /veh HAMP (11756126_x_at) / RFU RNFT2 (11725882_a_at) / Fold change /veh RNFT2 (11725882_a_at) / RFU NR4A2 (11747474_a_at) / Fold change /veh NR4A2 (11747474_a_at) / RFU ABCC12 (11746883_a_at) / Fold change /veh ABCC12 (11746883_a_at) / RFU TMEM136 (11760407_x_at) / Fold change /veh TMEM136 (11760407_x_at) / RFU CLDN22 /// WWC2 (11732394_at) / Fold change /veh CLDN22 /// WWC2 (11732394_at) / RFU HLA-DPB1 (11760878_x_at) / Fold change /veh HLA-DPB1 (11760878_x_at) / RFU SPINT1 (11716480_a_at) / Fold change /veh SPINT1 (11716480_a_at) / RFU GAP43 (11754022_s_at) / Fold change /veh GAP43 (11754022_s_at) / RFU A4GNT (11735810_at) / Fold change /veh A4GNT (11735810_at) / RFU PRB3 (11715151_x_at) / Fold change /veh PRB3 (11715151_x_at) / RFU TUBB4B (11761932_at) / Fold change /veh TUBB4B (11761932_at) / RFU CAPN14 (11732068_a_at) / Fold change /veh CAPN14 (11732068_a_at) / RFU TMCC2 (11721928_a_at) / Fold change /veh TMCC2 (11721928_a_at) / RFU IRGQ (11745062_a_at) / Fold change /veh IRGQ (11745062_a_at) / RFU FAM174B (11720279_a_at) / Fold change /veh FAM174B (11720279_a_at) / RFU TMPRSS4 (11748680_a_at) / Fold change /veh TMPRSS4 (11748680_a_at) / RFU FAM212B (11763350_a_at) / Fold change /veh FAM212B (11763350_a_at) / RFU PLEKHG5 (11743358_a_at) / Fold change /veh PLEKHG5 (11743358_a_at) / RFU ZSCAN30 (11745921_a_at) / Fold change /veh ZSCAN30 (11745921_a_at) / RFU CMKLR1 (11741424_a_at) / Fold change /veh CMKLR1 (11741424_a_at) / RFU LOC101060620 /// MAPK8IP1 (11723275_at) / Fold change /veh LOC101060620 /// MAPK8IP1 (11723275_at) / RFU SPTSSB (11747773_x_at) / Fold change /veh SPTSSB (11747773_x_at) / RFU PRSS12 (11739890_at) / Fold change /veh PRSS12 (11739890_at) / RFU BIN1 (11741810_x_at) / Fold change /veh BIN1 (11741810_x_at) / RFU WNT11 (11732464_a_at) / Fold change /veh WNT11 (11732464_a_at) / RFU C10orf10 (11716521_a_at) / Fold change /veh C10orf10 (11716521_a_at) / RFU C5orf56 (11738089_at) / Fold change /veh C5orf56 (11738089_at) / RFU CYB561 (11721691_x_at) / Fold change /veh CYB561 (11721691_x_at) / RFU ANKRD19P (11752326_a_at) / Fold change /veh ANKRD19P (11752326_a_at) / RFU OR2T12 /// OR2T33 /// OR2T8 (11738714_s_at) / Fold change /veh OR2T12 /// OR2T33 /// OR2T8 (11738714_s_at) / RFU VCAN (11748164_a_at) / Fold change /veh VCAN (11748164_a_at) / RFU JSRP1 (11732532_at) / Fold change /veh JSRP1 (11732532_at) / RFU KRTAP10-11 (11738290_x_at) / Fold change /veh KRTAP10-11 (11738290_x_at) / RFU MYO3A (11730013_a_at) / Fold change /veh MYO3A (11730013_a_at) / RFU EBF3 (11725865_a_at) / Fold change /veh EBF3 (11725865_a_at) / RFU CAMK2N1 (11719241_x_at) / Fold change /veh CAMK2N1 (11719241_x_at) / RFU C5orf56 (11738088_a_at) / Fold change /veh C5orf56 (11738088_a_at) / RFU OLFML3 (11715873_a_at) / Fold change /veh OLFML3 (11715873_a_at) / RFU LOC100653217 /// NTM (11731650_a_at) / Fold change /veh LOC100653217 /// NTM (11731650_a_at) / RFU MAPK11 (11762145_a_at) / Fold change /veh MAPK11 (11762145_a_at) / RFU FIZ1 (11724087_x_at) / Fold change /veh FIZ1 (11724087_x_at) / RFU OASL (11726364_x_at) / Fold change /veh OASL (11726364_x_at) / RFU SOX15 (11748057_x_at) / Fold change /veh SOX15 (11748057_x_at) / RFU CD79A (11719716_a_at) / Fold change /veh CD79A (11719716_a_at) / RFU HIST1H1D (11736915_at) / Fold change /veh HIST1H1D (11736915_at) / RFU CASKIN2 (11723855_a_at) / Fold change /veh CASKIN2 (11723855_a_at) / RFU LOC730098 (11760151_x_at) / Fold change /veh LOC730098 (11760151_x_at) / RFU OR4N2 (11742367_at) / Fold change /veh OR4N2 (11742367_at) / RFU PRRT2 (11749266_a_at) / Fold change /veh PRRT2 (11749266_a_at) / RFU SNX32 (11753110_a_at) / Fold change /veh SNX32 (11753110_a_at) / RFU CDHR5 (11726645_a_at) / Fold change /veh CDHR5 (11726645_a_at) / RFU RCAN1 (11760418_a_at) / Fold change /veh RCAN1 (11760418_a_at) / RFU FAM167A (11723789_a_at) / Fold change /veh FAM167A (11723789_a_at) / RFU FAM26E (11764081_at) / Fold change /veh FAM26E (11764081_at) / RFU ISYNA1 (11749810_s_at) / Fold change /veh ISYNA1 (11749810_s_at) / RFU ACY1 (11761880_at) / Fold change /veh ACY1 (11761880_at) / RFU 11764098_at / Fold change /veh 11764098_at / RFU SAMD14 (11745864_x_at) / Fold change /veh SAMD14 (11745864_x_at) / RFU NPB (11741838_a_at) / Fold change /veh NPB (11741838_a_at) / RFU TMPRSS6 (11731388_a_at) / Fold change /veh TMPRSS6 (11731388_a_at) / RFU KRTAP10-2 (11738614_at) / Fold change /veh KRTAP10-2 (11738614_at) / RFU ARHGAP8 /// PRR5-ARHGAP8 (11727945_x_at) / Fold change /veh ARHGAP8 /// PRR5-ARHGAP8 (11727945_x_at) / RFU KRTAP5-7 /// NADSYN1 (11734609_at) / Fold change /veh KRTAP5-7 /// NADSYN1 (11734609_at) / RFU RASL12 (11751679_a_at) / Fold change /veh RASL12 (11751679_a_at) / RFU CDKN2B (11736163_a_at) / Fold change /veh CDKN2B (11736163_a_at) / RFU PRF1 (11729649_at) / Fold change /veh PRF1 (11729649_at) / RFU, ZNF638 /// ZNF638-IT1 / Fold change vs veh, ZNF638 /// ZNF638-IT1 / RFU, PANK3 / Fold change vs veh, PANK3 / RFU, SH3YL1 / Fold change vs veh, SH3YL1 / RFU, ZEB2 / Fold change vs veh, ZEB2 / RFU, NRIP1 / Fold change vs veh, NRIP1 / RFU, PTTG1IP / Fold change vs veh, PTTG1IP / RFU, CAPN2 / Fold change vs veh, CAPN2 / RFU, MED14 / Fold change vs veh, MED14 / RFU, SNORA58 / Fold change vs veh, SNORA58 / RFU, C1orf63 / Fold change vs veh, C1orf63 / RFU, LRRFIP1 / Fold change vs veh, LRRFIP1 / RFU, NDUFAF7 / Fold change vs veh, NDUFAF7 / RFU, SLC12A2 / Fold change vs veh, SLC12A2 / RFU, IBTK / Fold change vs veh, IBTK / RFU, ESF1 / Fold change vs veh, ESF1 / Fold change vs veh, TMEM50B / RFU, TAOK1 / Fold change vs veh, TAOK1 / RFU, ACBD3 / Fold change vs veh, ACBD3 / RFU, TMA16 / Fold change vs veh, TMA16 / RFU, RWDD3 / Fold change vs veh, RWDD3 / RFU, BCAT1 / Fold change vs veh, BCAT1 / RFU, EDEM3 / Fold change vs veh, EDEM3 / RFU, TMEM33 / Fold change vs veh, TMEM33 / RFU, WDR75 / Fold change vs veh, WDR75 / RFU, AHCTF1 / Fold change vs veh, AHCTF1 / RFU, TFRC / Fold change vs veh, TFRC / RFU, ZDHHC17 / Fold change vs veh, ZDHHC17 / RFU, NOM1 / Fold change vs veh, NOM1 / RFU, ARL8B / Fold change vs veh, ARL8B / RFU, ZBTB11 / Fold change vs veh, ZBTB11 / RFU, TAMM41 / Fold change vs veh, TAMM41 / RFU, KIAA1704 /// LOC100996395 / Fold change vs veh, KIAA1704 /// LOC100996395 / RFU, ING1 / Fold change vs veh, ING1 / RFU, TRMT61B / Fold change vs veh, TRMT61B / RFU, FUBP3 / Fold change vs veh, FUBP3 / RFU, TP53 / Fold change vs veh, TP53 / RFU, TNKS2 / Fold change vs veh, TNKS2 / RFU, ZFP14 / Fold change vs veh, ZFP14 / RFU, ACTR2 / Fold change vs veh, ACTR2 / RFU, PPP3R1 / Fold change vs veh, PPP3R1 / RFU, PIK3R1 / Fold change vs veh, PIK3R1 / RFU, HNRNPA1 / Fold change vs veh, HNRNPA1 / RFU, RNF170 / Fold change vs veh, RNF170 / RFU, ZNF28 / Fold change vs veh, ZNF28 / RFU, RNGTT / Fold change vs veh, RNGTT / RFU, OGT / Fold change vs veh, OGT / RFU, BRD1 / Fold change vs veh, BRD1 / RFU, MARS / Fold change vs veh, MARS / RFU, ZNF655 / Fold change vs veh, ZNF655 / RFU, FAHD1 / Fold change vs veh, FAHD1 / RFU, BDP1 / Fold change vs veh, BDP1 / RFU, LRRCC1 / Fold change vs veh, LRRCC1 / RFU, ARID1A / Fold change vs veh, ARID1A / RFU, ZNF146 / Fold change vs veh, ZNF146 / RFU, ZNF330 / Fold change vs veh, ZNF330 / RFU, GPN3 / Fold change vs veh, GPN3 / RFU, C9orf123 / Fold change vs veh, C9orf123 / RFU, N4BP2L2 / Fold change vs veh, N4BP2L2 / RFU, ARFIP1 / Fold change vs veh, ARFIP1 / RFU, FAM179B / Fold change vs veh, FAM179B / RFU, BCL10 / Fold change vs veh, BCL10 / RFU, UHRF1BP1L / Fold change vs veh, UHRF1BP1L / RFU, BET1 / Fold change vs veh, BET1 / RFU, CNOT2 / Fold change vs veh, CNOT2 / RFU, ZNF268 / Fold change vs veh, ZNF268 / Fold change vs veh, ZNF507 / RFU, DGCR2 / Fold change vs veh, DGCR2 / RFU, WDSUB1 / Fold change vs veh, WDSUB1 / Fold change vs veh, HSP90B1 /// MIR3652 / RFU, ADSS / Fold change vs veh, ADSS / RFU, GK / Fold change vs veh, GK / RFU, ZNF148 / Fold change vs veh, ZNF148 / RFU, TAF9 / Fold change vs veh, TAF9 / RFU, SLC1A5 / Fold change vs veh, SLC1A5 / RFU, SLMO2 / Fold change vs veh, SLMO2 / RFU, ABCC4 / Fold change vs veh, ABCC4 / RFU, LOC101060439 /// RAP1B / Fold change vs veh, LOC101060439 /// RAP1B / RFU, RFX7 / Fold change vs veh, RFX7 / RFU, GTPBP10 / Fold change vs veh, GTPBP10 / RFU, CNEP1R1 / Fold change vs veh, CNEP1R1 / RFU, BIVM-ERCC5 /// ERCC5 / Fold change vs veh, BIVM-ERCC5 /// ERCC5 / RFU, ILF3 / Fold change vs veh, ILF3 / RFU 11762660_at / Fold change /veh 11762660_at / RFU VCAN (11757783_s_at) / Fold change /veh VCAN (11757783_s_at) / RFU DDX43 (11728927_at) / Fold change /veh DDX43 (11728927_at) / RFU KRT8 (11758188_x_at) / Fold change /veh KRT8 (11758188_x_at) / RFU NKD1 (11759106_at) / Fold change /veh NKD1 (11759106_at) / RFU SRD5A1 (11742802_a_at) / Fold change /veh SRD5A1 (11742802_a_at) / RFU TPSAB1 /// TPSB2 (11721975_s_at) / Fold change /veh TPSAB1 /// TPSB2 (11721975_s_at) / RFU GSTM3 (11746129_a_at) / Fold change /veh GSTM3 (11746129_a_at) / RFU IL23R (11737362_x_at) / Fold change /veh IL23R (11737362_x_at) / RFU TMEM51 (11727254_a_at) / Fold change /veh TMEM51 (11727254_a_at) / RFU PIWIL2 (11732686_x_at) / Fold change /veh PIWIL2 (11732686_x_at) / RFU ORM1 (11744905_x_at) / Fold change /veh ORM1 (11744905_x_at) / RFU CCDC152 (11743942_at) / Fold change /veh CCDC152 (11743942_at) / RFU ECM1 (11717891_a_at) / Fold change /veh ECM1 (11717891_a_at) / RFU IL23R (11748794_a_at) / Fold change /veh IL23R (11748794_a_at) / RFU TNFAIP8L3 (11732012_x_at) / Fold change /veh TNFAIP8L3 (11732012_x_at) / RFU MBOAT4 (11741988_at) / Fold change /veh MBOAT4 (11741988_at) / RFU 11764193_at / Fold change /veh 11764193_at / RFU TMEM53 (11763286_at) / Fold change /veh TMEM53 (11763286_at) / RFU MAGEB2 (11727129_at) / Fold change /veh MAGEB2 (11727129_at) / RFU TMEM200A (11744735_a_at) / Fold change /veh TMEM200A (11744735_a_at) / RFU CCDC152 (11751479_a_at) / Fold change /veh CCDC152 (11751479_a_at) / RFU FAM211A (11726209_a_at) / Fold change /veh FAM211A (11726209_a_at) / RFU RGS16 (11746705_a_at) / Fold change /veh RGS16 (11746705_a_at) / RFU VCAN (11755009_s_at) / Fold change /veh VCAN (11755009_s_at) / RFU RHOB (11743442_s_at) / Fold change /veh RHOB (11743442_s_at) / RFU RGS16 (11720943_a_at) / Fold change /veh RGS16 (11720943_a_at) / RFU RGS16 (11720944_at) / Fold change /veh RGS16 (11720944_at) / RFU, VPS4B / Fold change vs veh, VPS4B / RFU, CREB1 / Fold change vs veh, CREB1 / RFU, DNAJC13 / Fold change vs veh, DNAJC13 / RFU, GNAQ / Fold change vs veh, GNAQ / RFU, CDK5R1 / Fold change vs veh, CDK5R1 / RFU, ZRANB3 / Fold change vs veh, ZRANB3 / RFU, CUL4A / Fold change vs veh, CUL4A / RFU, CCNY / Fold change vs veh, CCNY / RFU, UFL1 / Fold change vs veh, UFL1 / RFU, COG3 / Fold change vs veh, COG3 / RFU, DIAPH2 / Fold change vs veh, DIAPH2 / RFU, SKA2 / Fold change vs veh, SKA2 / RFU, AFF3 / Fold change vs veh, AFF3 / RFU, LMF1 / Fold change vs veh, LMF1 / RFU, IPO11 / Fold change vs veh, IPO11 / RFU, DFFB / Fold change vs veh, DFFB / RFU, FOXP1 / Fold change vs veh, FOXP1 / RFU, CARD8 / Fold change vs veh, CARD8 / RFU, STRN3 / Fold change vs veh, STRN3 / RFU, ADK / Fold change vs veh, ADK / RFU, RASSF2 / Fold change vs veh, RASSF2 / RFU, WIPF1 / Fold change vs veh, WIPF1 / RFU, LARP1B / Fold change vs veh, LARP1B / RFU, RASA1 / Fold change vs veh, RASA1 / RFU, RB1 / Fold change vs veh, RB1 / RFU, PPFIA1 / Fold change vs veh, PPFIA1 / RFU, MAT2A / Fold change vs veh, MAT2A / RFU, CCT5 / Fold change vs veh, CCT5 / RFU, WDR92 / Fold change vs veh, WDR92 / RFU, CUX1 / Fold change vs veh, CUX1 / RFU, TTC7A / Fold change vs veh, TTC7A / RFU, TMEM135 / Fold change vs veh, TMEM135 / RFU, DEPTOR / Fold change vs veh, DEPTOR / RFU, CPM / Fold change vs veh, CPM / RFU, DNAJB6 / Fold change vs veh, DNAJB6 / RFU, CACNA2D3 / Fold change vs veh, CACNA2D3 / RFU, DTX4 / Fold change vs veh, DTX4 / RFU, TFCP2 / Fold change vs veh, TFCP2 / RFU, GMCL1 /// GMCL1P1 / Fold change vs veh, GMCL1 /// GMCL1P1 / RFU, AEBP2 / Fold change vs veh, AEBP2 / RFU, SNHG1 /// SNORD22 /// SNORD25 /// SNORD26 /// SNORD27 /// SNORD28 /// SNORD29 /// SNORD31 / Fold change vs veh, SNHG1 /// SNORD22 /// SNORD25 /// SNORD26 /// SNORD27 /// SNORD28 /// SNORD29 /// SNORD31 / Fold change (Aza/veh), C12orf56 (ProbeSet 11735607_a_at) / Fold change (ACY-1035/veh), C12orf56 (ProbeSet 11735607_a_at) / Fold change (Aza/veh), FGFR1OP (ProbeSet 11751329_s_at) / Fold change (ACY-1035/veh), FGFR1OP (ProbeSet 11751329_s_at) / Fold change (Aza/veh), VPS36 (ProbeSet 11739960_a_at) / Fold change (ACY-1035/veh), VPS36 (ProbeSet 11739960_a_at) / RFU SYPL1 (11715823_x_at) / Fold change /veh SYPL1 (11715823_x_at) / RFU IGFBP7 (11715501_s_at) / Fold change /veh IGFBP7 (11715501_s_at) / RFU REEP3 (11722064_at) / Fold change /veh REEP3 (11722064_at) / RFU IGLL1 (11728026_x_at) / Fold change /veh IGLL1 (11728026_x_at): dose or concentration left out as unconfirmed",
  "settings": "ProbeSet 11732370_a_at; LIST D",
  "data": [
    {"smiles": "Nc1ncn([C@@H]2O[C@H](CO)[C@@H](O)[C@H]2O)c(=O)n1", "note": "[azacitidine]", "values": [
      {"measurement": "RFU, CUX1", "value": 199.77, "unit": "RFU"}
    ]}
  ]
}
